Patent US6706663B2, “Herbicidal 3-heterocyclic substituted benzisothiazole and benzisoxazole compounds” (Wyeth, priority 2000, dated 2004)

What was measured:
[1] = system: ABUTH (Abutilon theophrasti); assay: Postemergence herbicidal evaluation; format: in vivo, Medic.
Outline: (§1)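 Seedlings grown about two weeks in flats, sprayed, then kept under standard greenhouse care. Rated visually 4–5 weeks after treatment on a 0–9 scale (stand, vigour, malformation, size, chlorosis, overall appearance) relative to untreated control; repeat tests averaged.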

[2] = system: AMBEL (Ambrosia artemisifolia); assay: Postemergence herbicidal evaluation; format: in vivo, L.
Outline: as §1

[3] = system: CASOB (Cassia obtusifolia); assay: Postemergence herbicidal evaluation; format: in vivo, L.
Outline: as §1

[4] = system: CHEAL (Chenopodium album); assay: Postemergence herbicidal evaluation; format: in vivo, L.
Outline: as §1

GALAP (Galium aparine) [5] = assay: Postemergence herbicidal evaluation; format: in vivo
Outline: as §1

[6] = system: IPOHE (Ipomoea hederacea); assay: Postemergence herbicidal evaluation; format: in vivo, (L.) Jacq.
Outline: as §1

[7] = system: GLXMAW (Soybean, Williams); assay: Postemergence herbicidal evaluation; format: in vivo, Glycine max, (L.) Merr. cv Williams
Outline: as §1

ORYSAT (Rice, Tebonnet) [8] = assay: Postemergence herbicidal evaluation; format: in vivo, Oryza sativa, (L.) Tebonnet
Outline: as §1

ZEAMX (Corn, Field) = assay: Postemergence herbicidal evaluation; format: in vivo, Zea mays, L.
Outline: as §1

GALAP (Galium aparine) [9] = assay: Preemergence herbicidal evaluation; format: in vivo; conditions: preemergence, rated 4-5 weeks after treatment
Outline: (§2)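 Seeds planted in potting soil cups and sprayed preemergence with aqueous acetone compound solution. Greenhouse-grown; rated 4–5 weeks after treatment on a 0-9 visual scale (stand, vigor, malformation, size, chlorosis, appearance) versus control.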

[10] = system: ECHCG (Echinochloa crus-galli); assay: Preemergence herbicidal evaluation; format: in vivo, (L.) Beau; conditions: preemergence, rated 4-5 weeks after treatment
Outline: as §2

SETVI (Setaria viridis) = assay: Preemergence herbicidal evaluation; format: in vivo, (L.) Beau; conditions: preemergence, rated 4-5 weeks after treatment
Outline: as §2

ORYSAT (Rice, Tebonnet) [11] = assay: Preemergence herbicidal evaluation; format: in vivo, Oryza sativa, (L.) Tebonnet; conditions: preemergence, rated 4-5 weeks after treatment
[12] = system: TRZAWR (Wheat, Winter, cv Riband); assay: Preemergence herbicidal evaluation; format: in vivo, Triticum aestivum; conditions: preemergence, rated 4-5 weeks after treatment
Outline: as §2

[13] = system: ECHORC (Echinochloa oryzoides); assay: Flooded paddy, postemergence weed control; format: in vivo, Echinochloa oryzoides (Ard.) Fritsch.; conditions: postemergence weeds, rated 3-4 weeks after treatment
Outline: (§3)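 Weeds 3–5 cm tall and rice at 1.5–2.5 leaf stage in containers flooded 1.5–3 cm deep; compounds in 50/50 v/v aqueous/acetone injected into flood water at about 0.0320–0.2500 kg/ha. Greenhouse-held; visual 0–9 rating versus untreated control after three to four weeks.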

CYPIR (Cyperus iria) = assay: Flooded paddy, postemergence weed control; format: in vivo; conditions: postemergence weeds, rated 3-4 weeks after treatment
Outline: as §3

[14] = system: CYPSE (Cyperus serotinus); assay: Flooded paddy, postemergence weed control; format: in vivo, Rottb.; conditions: postemergence weeds, rated 3-4 weeks after treatment
Outline: as §3

[15] = system: MOOVA (Monochoria vaginalis); assay: Flooded paddy, postemergence weed control; format: in vivo, Presl.; conditions: postemergence weeds, rated 3-4 weeks after treatment
Outline: as §3

[16] = system: SAGPY (Sagittaria pygmaea); assay: Flooded paddy, postemergence weed control; format: in vivo, L.; conditions: postemergence weeds, rated 3-4 weeks after treatment
Outline: as §3

ORYSAT (Rice, Tebonnet) [17] = assay: Flooded paddy, post-transplant and postemergence rice tolerance; format: in vivo, Oryza sativa, (L.) Tebonnet; conditions: post-transplant rice, rated 3-4 weeks after treatment
Outline: as §3

Cn1c(C(F)(F)F)cc(=O)n(-c2ccc3snc(-c4ncccn4)c3c2)c1=O [Compound 12, 1-methyl-3-[3-(2-pyrimidinyl)-1,2-benzisothiazol-5-yl]-6-(trifluoromethyl)uracil]
1.0: herbicide rating (0-9) ECHORC ([13]; 0.1250 kg/ha into flood water)
0.0: herbicide rating (0-9) CYPSE ([14]; 0.1250 kg/ha into flood water) | herbicide rating (0-9) SAGPY ([16]; 0.1250 kg/ha into flood water)
2.0: herbicide rating (0-9) MOOVA ([15]; 0.1250 kg/ha into flood water) | herbicide rating (0-9) ORYSAT (rice tolerance) (ORYSAT (Rice, Tebonnet) [17]; 0.1250 kg/ha into flood water)
8.5: Postemergence herbicidal rating, GLXMAW ([7]; rate 0.0620 kg/ha) | ORYSAT preemergence herbicidal rating (ORYSAT (Rice, Tebonnet) [11]; Rate 0.2500 kg/ha)
5.5: Postemergence herbicidal rating, ZEAMX (ZEAMX (Corn, Field); rate 0.0620 kg/ha)
6.0: Postemergence herbicidal rating, ORYSAT (ORYSAT (Rice, Tebonnet) [8]; rate 0.0620 kg/ha)
9.0: Postemergence herbicidal rating, ABUTH ([1]; rate 0.0620 kg/ha) | Postemergence herbicidal rating, AMBEL ([2]; rate 0.0620 kg/ha) | Postemergence herbicidal rating, CASOB ([3]; rate 0.0620 kg/ha) | Postemergence herbicidal rating, CHEAL ([4]; rate 0.0620 kg/ha) | Postemergence herbicidal rating, GALAP (GALAP (Galium aparine) [5]; rate 0.0620 kg/ha) | Postemergence herbicidal rating, IPOHE ([6]; rate 0.0620 kg/ha) | GALAP preemergence herbicidal rating (GALAP (Galium aparine) [9]; Rate 0.2500 kg/ha) | ECHCG preemergence herbicidal rating ([10]; Rate 0.2500 kg/ha) | SETVI preemergence herbicidal rating (SETVI (Setaria viridis); Rate 0.2500 kg/ha) | TRZAWR preemergence herbicidal rating ([12]; Rate 0.2500 kg/ha) | herbicide rating (0-9) CYPIR (CYPIR (Cyperus iria); 0.1250 kg/ha into flood water)

Cc1ccc(-c2nsc3ccc(-n4c(=O)cc(C(F)(F)F)n(C)c4=O)cc23)s1 [Compound 21, 1-methyl-3-[3-(5-methyl-2-thienyl)-1,2-benzisothiazol-5-yl]-6-(trifluoromethyl)uracil]
2.0: Postemergence herbicidal rating, CASOB ([3]; rate 0.0320 kg/ha) | GALAP preemergence herbicidal rating (GALAP (Galium aparine) [9]; Rate 0.1250 kg/ha) | TRZAWR preemergence herbicidal rating ([12]; Rate 0.2500 kg/ha)
0.5: ORYSAT preemergence herbicidal rating (ORYSAT (Rice, Tebonnet) [11]; Rate 0.1250 kg/ha)
9.0: Postemergence herbicidal rating, ABUTH ([1]; rate 0.0320 kg/ha) | Postemergence herbicidal rating, ABUTH ([1]; rate 0.0620 kg/ha) | Postemergence herbicidal rating, ABUTH ([1]; rate 0.1250 kg/ha) | Postemergence herbicidal rating, AMBEL ([2]; rate 0.0320 kg/ha) | Postemergence herbicidal rating, AMBEL ([2]; rate 0.0620 kg/ha) | Postemergence herbicidal rating, AMBEL ([2]; rate 0.1250 kg/ha) | Postemergence herbicidal rating, CHEAL ([4]; rate 0.0620 kg/ha) | Postemergence herbicidal rating, CHEAL ([4]; rate 0.1250 kg/ha) | Postemergence herbicidal rating, GALAP (GALAP (Galium aparine) [5]; rate 0.1250 kg/ha) | Postemergence herbicidal rating, IPOHE ([6]; rate 0.0320 kg/ha) | Postemergence herbicidal rating, IPOHE ([6]; rate 0.0620 kg/ha) | Postemergence herbicidal rating, IPOHE ([6]; rate 0.1250 kg/ha) | GALAP preemergence herbicidal rating (GALAP (Galium aparine) [9]; Rate 0.2500 kg/ha) | SETVI preemergence herbicidal rating (SETVI (Setaria viridis); Rate 0.1250 kg/ha) | SETVI preemergence herbicidal rating (SETVI (Setaria viridis); Rate 0.2500 kg/ha) | herbicide rating (0-9) ECHORC ([13]; 0.0620 kg/ha into flood water) | herbicide rating (0-9) ECHORC ([13]; 0.1250 kg/ha into flood water) | herbicide rating (0-9) CYPIR (CYPIR (Cyperus iria); 0.0320 kg/ha into flood water) | herbicide rating (0-9) CYPIR (CYPIR (Cyperus iria); 0.0620 kg/ha into flood water) | herbicide rating (0-9) CYPIR (CYPIR (Cyperus iria); 0.1250 kg/ha into flood water) | herbicide rating (0-9) MOOVA ([15]; 0.0320 kg/ha into flood water) | herbicide rating (0-9) MOOVA ([15]; 0.0620 kg/ha into flood water) | herbicide rating (0-9) MOOVA ([15]; 0.1250 kg/ha into flood water)
3.0: GALAP preemergence herbicidal rating (GALAP (Galium aparine) [9]; Rate 0.0620 kg/ha)
4.0: Postemergence herbicidal rating, CASOB ([3]; rate 0.0620 kg/ha) | Postemergence herbicidal rating, GALAP (GALAP (Galium aparine) [5]; rate 0.0620 kg/ha) | Postemergence herbicidal rating, ORYSAT (ORYSAT (Rice, Tebonnet) [8]; rate 0.0320 kg/ha) | herbicide rating (0-9) ORYSAT (rice tolerance) (ORYSAT (Rice, Tebonnet) [17]; 0.0320 kg/ha into flood water)
6.0: Postemergence herbicidal rating, GLXMAW ([7]; rate 0.0620 kg/ha) | Postemergence herbicidal rating, GLXMAW ([7]; rate 0.1250 kg/ha) | herbicide rating (0-9) ECHORC ([13]; 0.0320 kg/ha into flood water)
5.0: Postemergence herbicidal rating, ZEAMX (ZEAMX (Corn, Field); rate 0.0320 kg/ha) | ECHCG preemergence herbicidal rating ([10]; Rate 0.1250 kg/ha)
6.5: ECHCG preemergence herbicidal rating ([10]; Rate 0.2500 kg/ha) | SETVI preemergence herbicidal rating (SETVI (Setaria viridis); Rate 0.0620 kg/ha)
5.5: Postemergence herbicidal rating, GLXMAW ([7]; rate 0.0320 kg/ha) | Postemergence herbicidal rating, ZEAMX (ZEAMX (Corn, Field); rate 0.0620 kg/ha) | Postemergence herbicidal rating, ZEAMX (ZEAMX (Corn, Field); rate 0.1250 kg/ha)
7.0: Postemergence herbicidal rating, CASOB ([3]; rate 0.1250 kg/ha) | Postemergence herbicidal rating, CHEAL ([4]; rate 0.0320 kg/ha) | herbicide rating (0-9) ORYSAT (rice tolerance) (ORYSAT (Rice, Tebonnet) [17]; 0.0620 kg/ha into flood water) | herbicide rating (0-9) ORYSAT (rice tolerance) (ORYSAT (Rice, Tebonnet) [17]; 0.1250 kg/ha into flood water)
4.5: Postemergence herbicidal rating, ORYSAT (ORYSAT (Rice, Tebonnet) [8]; rate 0.1250 kg/ha)
0.0: ECHCG preemergence herbicidal rating ([10]; Rate 0.0620 kg/ha) | ORYSAT preemergence herbicidal rating (ORYSAT (Rice, Tebonnet) [11]; Rate 0.0620 kg/ha) | TRZAWR preemergence herbicidal rating ([12]; Rate 0.0620 kg/ha) | herbicide rating (0-9) CYPSE ([14]; 0.0320 kg/ha into flood water) | herbicide rating (0-9) CYPSE ([14]; 0.0620 kg/ha into flood water) | herbicide rating (0-9) CYPSE ([14]; 0.1250 kg/ha into flood water) | herbicide rating (0-9) SAGPY ([16]; 0.0320 kg/ha into flood water) | herbicide rating (0-9) SAGPY ([16]; 0.0620 kg/ha into flood water) | herbicide rating (0-9) SAGPY ([16]; 0.1250 kg/ha into flood water)
1.0: Postemergence herbicidal rating, GALAP (GALAP (Galium aparine) [5]; rate 0.0320 kg/ha) | TRZAWR preemergence herbicidal rating ([12]; Rate 0.1250 kg/ha)
3.5: Postemergence herbicidal rating, ORYSAT (ORYSAT (Rice, Tebonnet) [8]; rate 0.0620 kg/ha) | ORYSAT preemergence herbicidal rating (ORYSAT (Rice, Tebonnet) [11]; Rate 0.2500 kg/ha)
